Data reported in ChEMBL document CHEMBL3885861, “Open TG-GATES”.

Species: Rattus norvegicus
Experiment: Open TG-GATES - Regimen: Single
Assay type: toxicity, organism-based, Sprague-Dawley
Parameters: regimen Single, gender Male, age 6 weeks
Settings: in vivo, po, 100 mg/kg, route gavage, dose level Middle; for APTT / Bas / Eos / Fbg / Hb / Ht / Lym / MCH / MCHC / MCV / Mono / Neu / PT / Plat / RBC / Ret / WBC: tissue Blood; for KIDNEY_TOTAL: tissue Kidney; for LIVER: tissue Liver; for A/G / ALP / ALT / AST / BUN / CRE / Ca / Cl / DBIL / GLC / IP / K / LDH / Na / PL / RALB / TBIL / TC / TG / TP / gamma-GTP: tissue Plasma

CN(CCOc1ccc(CC2SC(=O)NC2=O)cc1)c1ccccn1.O=C(O)/C=C\C(=O)O (centres undefined) [ROSIGLITAZONE MALEATE]
TERMINAL_BW (3 h): 205.4 g
APTT (3 h): 16.2 s
Bas (3 h): 0%
Eos (3 h): 1%
Fbg (3 h): 217.8 mg/dL
Hb (3 h): 13 g/dL
Ht (3 h): 39.5%
Lym (3 h): 77.2%
MCH (3 h): 21.3 pg
MCHC (3 h): 32.8%
MCV (3 h): 65 fL
Mono (3 h): 7.8%
Neu (3 h): 14.4%
PT (3 h): 12.2 s
Plat (3 h): 119.4 x10_4/uL
RBC (3 h): 607.6 x10_4/ul
Ret (3 h): 8.6%
WBC (3 h): 105 x10_2/uL
KIDNEY_TOTAL (3 h): 0.8 g
LIVER (3 h): 9.5 g
A/G (3 h): 2.2
ALP (3 h): 1374 IU/L
ALT (3 h): 36.6 IU/L
AST (3 h): 74.6 IU/L
BUN (3 h): 13.4 mg/dL
CRE (3 h): 0.4 mg/dL
Ca (3 h): 11.6 mg/dL
Cl (3 h): 104 meq/L
DBIL (3 h): 0.014 mg/dL
GLC (3 h): 189.2 mg/dL
IP (3 h): 8.9 mg/dL
K (3 h): 4.4 meq/L
LDH (3 h): 107.8 IU/L
Na (3 h): 139.6 meq/L
PL (3 h): 133.2 mg/dL
RALB (3 h): 3.6 g/dL
TBIL (3 h): 0.046 mg/dL
TC (3 h): 78.8 mg/dL
TG (3 h): 75.6 mg/dL
TP (3 h): 5.3 g/dL
gamma-GTP (3 h): 0.8 IU/L
TERMINAL_BW (6 h): 206.8 g
APTT (6 h): 16.7 s
Bas (6 h): 0%
Eos (6 h): 1%
Fbg (6 h): 221.8 mg/dL
Hb (6 h): 12.4 g/dL
Ht (6 h): 37.5%
Lym (6 h): 67.4%
MCH (6 h): 20.7 pg
MCHC (6 h): 33.1%
MCV (6 h): 62.5 fL
Mono (6 h): 9.8%
Neu (6 h): 22%
PT (6 h): 12.4 s
Plat (6 h): 124.2 x10_4/uL
RBC (6 h): 600 x10_4/ul
Ret (6 h): 8.9%
WBC (6 h): 105.2 x10_2/uL
KIDNEY_TOTAL (6 h): 0.8 g
LIVER (6 h): 9 g
A/G (6 h): 2.3
ALP (6 h): 1392.2 IU/L
ALT (6 h): 33.6 IU/L
AST (6 h): 64 IU/L
BUN (6 h): 10.2 mg/dL
CRE (6 h): 0.4 mg/dL
Ca (6 h): 11.1 mg/dL
Cl (6 h): 104.2 meq/L
DBIL (6 h): 0.016 mg/dL
GLC (6 h): 179.2 mg/dL
IP (6 h): 10 mg/dL
K (6 h): 4.5 meq/L
LDH (6 h): 82.2 IU/L
Na (6 h): 138.4 meq/L
PL (6 h): 127.8 mg/dL
RALB (6 h): 3.6 g/dL
TBIL (6 h): 0.042 mg/dL
TC (6 h): 73 mg/dL
TG (6 h): 64.2 mg/dL
TP (6 h): 5.2 g/dL
gamma-GTP (6 h): 1 IU/L
TERMINAL_BW (9 h): 198.2 g
APTT (9 h): 16.2 s
Bas (9 h): 0%
Eos (9 h): 1%
Fbg (9 h): 217 mg/dL
Hb (9 h): 12.7 g/dL
Ht (9 h): 38.5%
Lym (9 h): 75.6%
MCH (9 h): 22.1 pg
MCHC (9 h): 32.9%
MCV (9 h): 67.1 fL
Mono (9 h): 4.8%
Neu (9 h): 19%
PT (9 h): 12.3 s
Plat (9 h): 118.4 x10_4/uL
RBC (9 h): 574.2 x10_4/ul
Ret (9 h): 8.9%
WBC (9 h): 85 x10_2/uL
KIDNEY_TOTAL (9 h): 0.8 g
LIVER (9 h): 8.3 g
A/G (9 h): 2.5
ALP (9 h): 1125.2 IU/L
ALT (9 h): 28 IU/L
AST (9 h): 62 IU/L
BUN (9 h): 11.2 mg/dL
CRE (9 h): 0.4 mg/dL
Ca (9 h): 11.7 mg/dL
Cl (9 h): 103.8 meq/L
DBIL (9 h): 0.014 mg/dL
GLC (9 h): 190.6 mg/dL
IP (9 h): 11.3 mg/dL
K (9 h): 4.3 meq/L
LDH (9 h): 120.2 IU/L
Na (9 h): 140.4 meq/L
PL (9 h): 122.2 mg/dL
RALB (9 h): 3.9 g/dL
TBIL (9 h): 0.046 mg/dL
TC (9 h): 70.2 mg/dL
TG (9 h): 49.6 mg/dL
TP (9 h): 5.5 g/dL
gamma-GTP (9 h): 0.6 IU/L
TERMINAL_BW (24 h): 224.2 g
APTT (24 h): 16.3 s
Bas (24 h): 0%
Eos (24 h): 0.8%
Fbg (24 h): 213.2 mg/dL
Hb (24 h): 12.4 g/dL
Ht (24 h): 38%
Lym (24 h): 68.8%
MCH (24 h): 20.9 pg
MCHC (24 h): 32.7%
MCV (24 h): 63.8 fL
Mono (24 h): 9.4%
Neu (24 h): 21.2%
PT (24 h): 11.5 s
Plat (24 h): 120.6 x10_4/uL
RBC (24 h): 596.2 x10_4/ul
Ret (24 h): 7.7%
WBC (24 h): 74.8 x10_2/uL
KIDNEY_TOTAL (24 h): 0.6 g
LIVER (24 h): 11.2 g
A/G (24 h): 2.7
ALP (24 h): 1341.6 IU/L
ALT (24 h): 40.2 IU/L
AST (24 h): 71.2 IU/L
BUN (24 h): 16.6 mg/dL
CRE (24 h): 0.4 mg/dL
Ca (24 h): 11.3 mg/dL
Cl (24 h): 104.4 meq/L
DBIL (24 h): 0.016 mg/dL
GLC (24 h): 187.6 mg/dL
IP (24 h): 7.8 mg/dL
K (24 h): 4.5 meq/L
LDH (24 h): 123.8 IU/L
Na (24 h): 140 meq/L
PL (24 h): 161.6 mg/dL
RALB (24 h): 3.8 g/dL
TBIL (24 h): 0.032 mg/dL
TC (24 h): 90.6 mg/dL
TG (24 h): 127.2 mg/dL
TP (24 h): 5.3 g/dL
gamma-GTP (24 h): 1 IU/L
